Source: patent publication US11224619B2, “Formulations and methods for treatment of inflammatory skin diseases” (Zemtsov Enterprises, LLC, priority 2012, dated 2022)

Test system: atopic dermatitis / plaque psoriasis
Experiment: Response of individual study subjects to earlier therapy

C[C@H]1C[C@H]2[C@@H]3CCC4=CC(=O)C=C[C@]4(C)[C@@]3(F)[C@@H](O)C[C@]2(C)[C@@]1(O)C(=O)CCl [clobetasol]
Response to earlier therapy (Subject #2, chronic atopic dermatitis on the neck): unresponsive

CC(=O)OCC(=O)[C@@]12OC(C)(C)O[C@@H]1C[C@H]1[C@@H]3C[C@H](F)C4=CC(=O)C=C[C@]4(C)[C@@]3(F)[C@@H](O)C[C@@]12C [fluocinonide]
Response to earlier therapy (Subject #5, persistent psoriatic lesions on the abdomen): unresponsive

etanercept
Disease control under ongoing therapy (Subject #5, chronic severe plaque psoriasis, subcutaneous injections): reasonable control
